From patent US5563155A, “Individual stereosiomers of 7-[3-(aminoalkyl)-1-pyrrolidinyl]-quinolones and naphthyridones as antibacterial agents” (Warner-Lambert Company, priority 1995, dated 1996)
In brackets after ≈: the same amount, converted by molar mass. Where two headings read alike, the source gives them in different places.

Assays:
[1] = test system: Klebs. pneumoniae MGH-2; assay: in vitro antibacterial activity, microtitration dilution (MIC), Klebs. pneumoniae MGH-2; assay type: cell-based; details: Klebsiella pneumoniae, MGH2, read-out: minimum inhibiting concentration (MIC)
Source text: (§1) The in vitro antibacterial activity, is obtained by the microtitration dilution method as described in Heifetz, et al., Antimicr. Agents & Chemother., 6, 124 (1974), which is incorporated herein by reference.
(§2) By use of the above methods, the following minimum inhibiting concentration values (MICs in μg/mL), PD50 's in mg/kg, no effect phototoxicity dose in mg/kg and the cytotoxicity IC50 in μg/mL were obtained for representative enantiomers of the invention and compounds of the prior art as shown in the table.

[2] = test system: Strep. faecalis MGH-2; assay: in vitro antibacterial activity, microtitration dilution (MIC), Strep. faecalis MGH-2; assay type: cell-based; details: Enterococcus faecalis, MGH2, read-out: minimum inhibiting concentration (MIC)
Source text: as §1, §2

[3] = test system: Esch. coli Vogel; assay: in vitro antibacterial activity, microtitration dilution (MIC), Esch. coli Vogel; assay type: cell-based; details: Escherichia coli, read-out: minimum inhibiting concentration (MIC)
Source text: as §1, §2

[4] = test system: Pseud. aeruginosa UI-18; assay: in vitro antibacterial activity, microtitration dilution (MIC), Pseud. aeruginosa UI-18; assay type: cell-based; details: Pseudomonas aeruginosa, UI18, read-out: minimum inhibiting concentration (MIC)
Source text: as §1, §2

[5] = test system: Prot. rettgeri M 1771; assay: in vitro antibacterial activity, microtitration dilution (MIC), Prot. rettgeri M 1771; assay type: cell-based; details: Providencia rettgeri, M1771, read-out: minimum inhibiting concentration (MIC)
Source text: as §1, §2

[6] = test system: Strep. pheumoniae SV-1; assay: in vitro antibacterial activity, microtitration dilution (MIC), Strep. pneumoniae SV-1; assay type: cell-based; details: Streptococcus pneumoniae, SV1, read-out: minimum inhibiting concentration (MIC)
Source text: as §1, §2

[7] = test system: Staph. aureus H 228; assay: in vitro antibacterial activity, microtitration dilution (MIC), Staph. aureus H 228; assay type: cell-based; details: Staphylococcus aureus, H228, read-out: minimum inhibiting concentration (MIC)
Source text: as §1, §2

[8] = test system: Ent. cloacae MA2646; assay: in vitro antibacterial activity, microtitration dilution (MIC), Ent. cloacae MA2646; assay type: cell-based; details: Enterobacter cloacae, read-out: minimum inhibiting concentration (MIC)
Source text: as §1, §2

[9] = test system: Staph. aureus UC-76; assay: in vitro antibacterial activity, microtitration dilution (MIC), Staph. aureus UC-76; assay type: cell-based; details: Staphylococcus aureus, UC76, read-out: minimum inhibiting concentration (MIC)
Source text: as §1, §2

[10] = test system: Strep. pyogenes C-203; assay: in vitro antibacterial activity, microtitration dilution (MIC), Strep. pyogenes C-203; assay type: cell-based; details: Streptococcus pyogenes, C203, read-out: minimum inhibiting concentration (MIC)
Source text: as §1, §2

[11] = test system: Strep. pyogenes C-203; assay: median protective dose in mice given lethal systemic infections, Strep. pyogenes C-203; assay type: in vivo; details: Streptococcus pyogenes, single dose at time of challenge, read-out: median protective dose (PD50)
Protocol: The in vivo activity is obtained when the compounds are tested according to the procedure of Miller, et al (Proc. Soc. Exp. Biol. Med. 57, 261, 1944). The median protective dose (PD50) was determined in mice given lethal systemic infections. Single doses of compound were given at time of challenge.
as §2
The in vivo data as PD50 s are reported below the line of MICs for the same compound.

| SMILES | MIC [1] | MIC [2] | MIC [3] | MIC [4] | MIC [5] | MIC [6] | MIC [7] | MIC [8] | MIC [9] | MIC [10] | ED50 ([11]; C203, PO) | ED50 ([11]; C203, SC) |
| --- | --- | --- | --- | --- | --- | --- | --- | --- | --- | --- | --- | --- |
| CCN[C@@H](C)[C@H]1CCN(c2c(F)cc3c(=O)c(C(=O)O)cn(C4CC4)c3c2OC)C1 [Example 20, 3S,1S-1-cyclopropyl-6-fluoro-7-[3-(1-N-ethylaminoethyl)1-pyrrolidinyl]-8-methoxy-1,4-dihydro-4-oxo-3quinolinecarboxylic acid] | 1.6 µg/mL (≈ 3.83 µM) | 0.4 µg/mL (≈ 0.958 µM) | 0.8 µg/mL (≈ 1.92 µM) | 6.3 µg/mL (≈ 15.1 µM) | 3.1 µg/mL (≈ 7.43 µM) | 0.2 µg/mL (≈ 0.479 µM) | 0.2 µg/mL (≈ 0.479 µM) | 0.8 µg/mL (≈ 1.92 µM) | 0.05 µg/mL (≈ 0.12 µM) | 0.2 µg/mL (≈ 0.479 µM) |  |  |
| Cc1c(F)c(N2CC[C@@H]([C@@H](C)N)C2)cc2c1c(=O)c(C(=O)O)cn2-c1ccc(F)cc1F [Example 46, 3R,1R-7-[3-(1-aminoethyl)-1-pyrrolidinyl]-1-(2,4-difluorophenyl)-6-fluoro-1,4-dihydro-5-methyl-4-oxo-3-quinolinecarboxylic acid] | 0.4 µg/mL (≈ 0.898 µM) | 0.1 µg/mL (≈ 0.224 µM) | 0.2 µg/mL (≈ 0.449 µM) | 1.6 µg/mL (≈ 3.59 µM) | 0.4 µg/mL (≈ 0.898 µM) | 0.013 µg/mL (≈ 0.0292 µM) | 0.025 µg/mL (≈ 0.0561 µM) | 0.2 µg/mL (≈ 0.449 µM) | 0.013 µg/mL (≈ 0.0292 µM) | 0.013 µg/mL (≈ 0.0292 µM) |  |  |
| C[C@@H](N)[C@@H]1CCN(c2nc3c(cc2F)c(=O)c(C(=O)O)cn3-c2ccc(F)cc2F)C1 [Example 48, 3R,1R-7-[3-(1-aminoethyl)-1-pyrrolidinyl]-1-(2,4-difluorophenyl)-6-fluoro-1,4-dihydro-1,8-naphthyridine-3-carboxylic acid] | 0.2 µg/mL (≈ 0.463 µM) | 0.1 µg/mL (≈ 0.231 µM) | 0.1 µg/mL (≈ 0.231 µM) | 1.6 µg/mL (≈ 3.7 µM) | 0.4 µg/mL (≈ 0.925 µM) | 0.05 µg/mL (≈ 0.116 µM) | 0.1 µg/mL (≈ 0.231 µM) | 0.1 µg/mL (≈ 0.231 µM) | 0.025 µg/mL (≈ 0.0578 µM) | 0.05 µg/mL (≈ 0.116 µM) | 9 mg/kg | 3 mg/kg |
| CN[C@H](C)[C@H]1CCN(c2nc3c(cc2F)c(=O)c(C(=O)O)cn3C2CC2)C1 [Example 23, 3S,1R-1-cyclopropyl-6-fluoro-7-[3-(1-N-methylaminoethyl)-1-pyrrolidinyl]-1,4-dihydro-4-oxo-1,8-naphthyridine-3-carboxylic acid] | 0.2 µg/mL (≈ 0.534 µM) | 0.2 µg/mL (≈ 0.534 µM) | 0.1 µg/mL (≈ 0.267 µM) | 1.6 µg/mL (≈ 4.27 µM) | 0.8 µg/mL (≈ 2.14 µM) | 0.1 µg/mL (≈ 0.267 µM) | 0.2 µg/mL (≈ 0.534 µM) | 0.1 µg/mL (≈ 0.267 µM) | 0.05 µg/mL (≈ 0.134 µM) | 0.1 µg/mL (≈ 0.267 µM) |  |  |

Now from value to molecule, other results behind:

| MIC [1] | MIC [2] | MIC [3] | MIC [4] | MIC [5] | MIC [6] | MIC [7] | MIC [8] | MIC [9] | MIC [10] | SMILES | ED50 ([11]; C203, PO) | ED50 ([11]; C203, SC) |
| --- | --- | --- | --- | --- | --- | --- | --- | --- | --- | --- | --- | --- |
| 0.4 µg/mL (≈ 0.871 µM) | 0.2 µg/mL (≈ 0.435 µM) | 0.4 µg/mL (≈ 0.871 µM) | 3.1 µg/mL (≈ 6.75 µM) | 0.8 µg/mL (≈ 1.74 µM) | 0.2 µg/mL (≈ 0.435 µM) | 0.1 µg/mL (≈ 0.218 µM) | 0.4 µg/mL (≈ 0.871 µM) | 0.05 µg/mL (≈ 0.109 µM) | 0.2 µg/mL (≈ 0.435 µM) | CN[C@H](C)[C@@H]1CCN(c2cc3c(c(C)c2F)c(=O)c(C(=O)O)cn3-c2ccc(F)cc2F)C1 [Example 63] |  |  |
| 0.8 µg/mL (≈ 1.69 µM) | 0.1 µg/mL (≈ 0.211 µM) | 0.4 µg/mL (≈ 0.845 µM) | 3.1 µg/mL (≈ 6.55 µM) | 1.6 µg/mL (≈ 3.38 µM) | 0.013 µg/mL (≈ 0.0275 µM) | 0.025 µg/mL (≈ 0.0528 µM) | 0.4 µg/mL (≈ 0.845 µM) | 0.013 µg/mL (≈ 0.0275 µM) | 0.013 µg/mL (≈ 0.0275 µM) | CCN[C@@H](C)[C@@H]1CCN(c2cc3c(c(C)c2F)c(=O)c(C(=O)O)cn3-c2ccc(F)cc2F)C1 [Example 54, 3R,1S-7-[3-(1-N-ethylaminoethyl)-1-pyrrolidinyl]-1-(2,4-difluorophenyl)-6-fluoro-1,4-dihydro-5-methyl-4-oxo-3-quinolinecarboxylic acid] |  |  |
| 0.1 µg/mL (≈ 0.247 µM) | 0.006 µg/mL (≈ 0.0148 µM) | 0.05 µg/mL (≈ 0.124 µM) | 0.8 µg/mL (≈ 1.98 µM) | 0.1 µg/mL (≈ 0.247 µM) | 0.003 µg/mL (≈ 0.00742 µM) | 0.006 µg/mL (≈ 0.0148 µM) | 0.05 µg/mL (≈ 0.124 µM) | 0.003 µg/mL (≈ 0.00742 µM) | 0.003 µg/mL (≈ 0.00742 µM) | COc1c(N2CC[C@@H]([C@H](C)N)C2)c(F)c(N)c2c(=O)c(C(=O)O)cn(C3CC3)c12 [Example 59, 3R,1S-5-amino-7-[3-(1-aminoethyl)-1-pyrrolidinyl]-1-cyclopropyl-6-fluoro-1,4-dihydro-8-methoxy-4-oxo-3-quinolinecarboxylic acid] |  |  |
